According to publication PMC3871636 (PLoS ONE, 2013):

Tests used:
[1] = biological target: T1, double-labeled CYP3A4 (C64/C468)-ER/DY (Homo sapiens, UniProt P08684, S18F, form not given); assay: Time-resolved LRET (phosphorescence lifetime measurements)
From the text: (§1) The excitation wavelength was set to 540 nm.

[2] = biological target: T2, double-labeled CYP3A4 C377/C468-DY/ER (Homo sapiens, UniProt P08684, S18F, form not given); assay: as above
From the text: as §1

[3] = biological target: T3, double-labeled CYP3A4 (C64/C468)-DY/ER (Homo sapiens, UniProt P08684, S18F, form not given); assay: as above
From the text: as §1

[4] = biological target: T4, double-labeled CYP3A4 C64/C121-DY/ER (Homo sapiens, UniProt P08684, A121C/C239S/C377S/C468A/C98S/S18F); assay: Steady-state LRET titration (delayed emission); details: Table S2; protein C64/C121-ER/DY; same ligand concentrations
Procedure: (§2) All absorbance and fluorescence assays (including the time-resolved fluorescence measurements) were performed at a protein concentration ≤1 µM at 25°C with continuous stirring. Absorbance spectra were recorded with an S2000 rapid scanning CCD spectrometer (Ocean Optics). Ligand binding assays were done in 100 mM Na-Hepes buffer, pH 7.4, containing 0.5 mM EDTA.
(§3) Fluorescence-based ligand binding assays were done under anaerobic conditions. Anaerobiosis was achieved using an oxygen-scavenging system consisting of protecatechuate-3,4-dioxygenase (0.5 units/ml) and 5 mM protocatechuic acid. The steady state and time-resolved phosphorescence measurements were performed with the use of a Cary Eclipse fluorescence spectrophotometer (Varian/Agilent Technologies). The excitation wavelength was set to 540 nm. Spectra were taken from 650 to 860 nm with 100 µs delay.
(§4) Quantitative interpretation of LRET results was also based on the use of PCA applied to a series of emission spectra normalized on integral intensity. […] Intensity of the donor and acceptor fluorescence obtained in this way were used in determination of the efficiency of steady-state LRET using the equation [drawing 1] (Eq.1) where I ad is emission intensity of the acceptor, I da is the residual donor emission in the presence of acceptor (I da), Φ a and Φ d are the quantum yield of the fluorescence of acceptor and the quantum yield of the phosphorescence of donor, respectively.
(§5) Distances were calculated using the equation: [drawing 3] (Eq.3) where R 0 is the Förster distance, and R is the distance between the donor and acceptor. R 0 was calculated with the use of PhotoChemCad software. In these calculations, we used the values of the orientation factor (κ^2) and the refractive index (n) of 0.667 and 1.4, respectively.
(§6) When fitting the results of titration experiments, where the changes in the monitored signal A S (fraction of the enzyme in the high-spin state, intensity or the lifetime of the donor phosphorescence at a given substrate concentration) were assumed to be proportional to [ES], this equation was complemented with the offset A 0 and the scaling factor A max to yield the following relationship: [drawing 5] (Eq.5)

[5] = biological target: T4, double-labeled CYP3A4 C64/C121-DY/ER; assay: Time-resolved LRET (phosphorescence lifetime measurements); details: same ligand concentrations
Procedure: as §2, §3
The treatment of the time-resolved decay traces was performed using a bi-exponential approximation. The efficiency of time-resolved LRET was calculated using the equation [drawing 2] (Eq.2)
In this equation τda and τd designate the average lifetime of the excited state of the donor in the presence and absence of the acceptor, respectively. These average lifetimes are determined as τ = α1τ1+α2τ2, where τ1,2 and α1,2 stay for the lifetime and the relative amplitude of each of the two exponential terms. In our calculations of the lifetime in double-labeled C64/C468, C377/C468 and C64/C121 proteins we used the lifetimes of phosphorescence measured with the respective proteins labeled with ERIA at a label:protein ratio 2∶1 as the estimates of τd.
as §5

[6] = biological target: T1, double-labeled CYP3A4 (C64/C468)-ER/DY; assay: Steady-state LRET titration (delayed emission); assay type: binding
Procedure: as §2, §3, §4, §5, §6

[7] = biological target: CYP3A4 (double-labeled (C64/C468)-ER/DY) (Homo sapiens, UniProt P08684, form not given/S18F); assay: Steady-state LRET titration (delayed emission); assay type: binding; details: human, purified double-labeled CYP3A4 (C64/C468)-ER/DY protein, pH 7.4; (C64/C468)-ER/DY; LRET titration; read-out: K d, steady-state fluorescence
Procedure: as §2, §3, §4, §5, §6

[8] = biological target: CYP3A4 (double-labeled (C64/C468)-DY/ER) (Homo sapiens, UniProt P08684, form not given/S18F); assay: Steady-state LRET titration (delayed emission); assay type: binding; details: human, purified double-labeled CYP3A4 (C64/C468)-DY/ER protein, pH 7.4; (C64/C468)-DY/ER; LRET titration; read-out: K d, steady-state fluorescence
Procedure: as §2, §3, §4, §5, §6

[9] = biological target: T2, double-labeled CYP3A4 C377/C468-DY/ER; assay: Steady-state LRET titration (delayed emission); assay type: binding; details: Table S2, protein C377/C468-ER/DY
Procedure: as §2, §3, §4, §5, §6

[10] = biological target: T3, double-labeled CYP3A4 (C64/C468)-DY/ER; assay: Steady-state LRET titration (delayed emission); assay type: binding
Procedure: as §2, §3, §4, §5, §6

[11] = (C64/C468)-ER/DY, nearly-saturating ligand: ANF 100 µM, bromocriptine 2.5 µM, cholesterol 50 µM, testosterone 100 µM
[12] = Table S1, (C64/C468)-ER/DY, same ligand concentrations
[13] = Table S2, C64/C468-ER/DY, 1-PB 40 µM, ANF 100 µM, BCT 2.5 µM, cholesterol 100 µM, testosterone 100 µM
[14] = Table S2, C64/C468-ER/DY, same ligand concentrations
[15] = Table S1, protein (C377/C468)-ER/DY, same ligand concentrations
[16] = Table S2, protein C377/C468-ER/DY, same ligand concentrations
[17] = (C64/C468)-DY/ER, nearly-saturating ligand: ANF 100 µM, bromocriptine 2.5 µM, cholesterol 50 µM, testosterone 100 µM
[18] = Table S1, (C64/C468)-DY/ER, same ligand concentrations
[19] = Table S2, C64/C468-DY/ER, 1-PB 40 µM, ANF 100 µM, BCT 2.5 µM, cholesterol 100 µM, testosterone 100 µM
[20] = Table S2, C64/C468-DY/ER, same ligand concentrations
[21] = Table S1, protein (C64/C121)-ER/DY
[22] = Table S2, protein C64/C121-ER/DY

T4 sequence (P08684 with tags, fused parts or gaps S18F/C98S/A121C/C239S/C377S/C468A limits assumed): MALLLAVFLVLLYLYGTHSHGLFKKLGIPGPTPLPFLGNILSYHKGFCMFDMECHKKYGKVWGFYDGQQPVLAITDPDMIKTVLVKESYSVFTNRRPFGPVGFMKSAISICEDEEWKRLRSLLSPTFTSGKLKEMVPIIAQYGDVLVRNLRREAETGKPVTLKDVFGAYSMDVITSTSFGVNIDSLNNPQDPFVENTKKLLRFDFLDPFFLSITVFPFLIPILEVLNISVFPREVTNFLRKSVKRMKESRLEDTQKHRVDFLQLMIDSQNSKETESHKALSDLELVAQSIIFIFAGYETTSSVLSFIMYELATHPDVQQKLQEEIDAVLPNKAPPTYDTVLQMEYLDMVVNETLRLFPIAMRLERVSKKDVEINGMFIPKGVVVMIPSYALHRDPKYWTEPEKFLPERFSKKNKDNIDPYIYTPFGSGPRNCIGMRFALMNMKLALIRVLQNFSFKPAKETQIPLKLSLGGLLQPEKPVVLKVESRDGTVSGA
T1 sequence (P08684 13-503 S18F, form open): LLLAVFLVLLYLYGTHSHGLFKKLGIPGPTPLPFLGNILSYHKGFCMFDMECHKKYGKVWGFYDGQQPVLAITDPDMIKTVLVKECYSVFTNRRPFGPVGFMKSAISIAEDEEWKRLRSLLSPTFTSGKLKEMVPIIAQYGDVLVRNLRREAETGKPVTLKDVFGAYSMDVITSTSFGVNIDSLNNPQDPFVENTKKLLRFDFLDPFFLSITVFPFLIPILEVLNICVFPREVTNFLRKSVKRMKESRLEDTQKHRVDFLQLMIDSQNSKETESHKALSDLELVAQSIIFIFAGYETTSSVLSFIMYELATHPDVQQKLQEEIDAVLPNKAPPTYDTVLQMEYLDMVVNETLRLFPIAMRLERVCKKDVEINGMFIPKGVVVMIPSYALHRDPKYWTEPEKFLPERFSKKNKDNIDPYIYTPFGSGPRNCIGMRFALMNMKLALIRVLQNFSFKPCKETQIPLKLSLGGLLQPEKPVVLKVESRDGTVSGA
T2 sequence (P08684 13-503 S18F, form open): as above
T3 sequence (P08684 13-503 S18F, form open): as above
Chain of CYP3A4 (double-labeled (C64/C468)-ER/DY) (P08684 13-503 S18F, form open): as above
Chain of CYP3A4 (double-labeled (C64/C468)-DY/ER) (P08684 13-503 S18F, form open): as above

CC(C)CCC[C@@H](C)[C@H]1CC[C@H]2[C@@H]3CC=C4C[C@@H](O)CC[C@]4(C)[C@H]3CC[C@]12C [Cholesterol, cholesterol]
ΔELT (change in LRET efficiency), lifetime measurements [1, 11]: −16.6±1% | ΔR (change in interprobe distance), lifetime measurements [1, 11]: 4.8±0.2 Å | τ1 (phosphorescence decay time with ligand) ([1]; Table S1, (C64/C468)-ER/DY, 1-PB 40 µM, ANF 100 µM, BCT 2.5 µM, cholesterol 100 µM, testosterone 100 µM, bi-exponential fit): 79 ± 1 µs | F1 (fraction of first exponential) [1, 12]: 53 ± 7% | τ2 (phosphorescence decay time with ligand) [1, 12]: 268 ± 2 µs | τav (average phosphorescence lifetime with ligand) [1, 12]: 173 ± 1 µs | E (LRET efficiency with ligand), lifetime measurements [1, 13]: 26 ± 1% | R (interprobe distance with ligand), lifetime measurements [1, 14]: 41.1± 0.2 Å | ΔR, lifetime measurements [1, 14]: 4.8 ± 0.2 Å | τ1 (phosphorescence decay time with ligand) ([2]; Table S1, protein (C377/C468)-ER/DY, 1-PB 40 µM, ANF 100 µM, BCT 2.5 µM, cholesterol 100 µM, testosterone 100 µM, bi-exponential fit): 38 ± 1 µs | F1 (fraction of first exponential) [2, 15]: 23 ± 5% | τ2 (phosphorescence decay time with ligand) [2, 15]: 163 ± 8 µs | τav (average phosphorescence lifetime with ligand) [2, 15]: 134 ± 3 µs | E (LRET efficiency with ligand), lifetime measurements ([2]; Table S2, protein C377/C468-ER/DY, 1-PB 40 µM, ANF 100 µM, BCT 2.5 µM, cholesterol 100 µM, testosterone 100 µM): 26 ± 2% | R (interprobe distance with ligand), lifetime measurements [2, 16]: 41.0 ± 0.6 Å | ΔR, lifetime measurements [2, 16]: 4.2 ± 0.6 Å | ΔELT (change in LRET efficiency), lifetime measurements [3, 17]: −5.9±3% | ΔR (change in interprobe distance), lifetime measurements [3, 17]: 1.6±1.0 Å | τ1 (phosphorescence decay time with ligand) ([3]; Table S1, (C64/C468)-DY/ER, 1-PB 40 µM, ANF 100 µM, BCT 2.5 µM, cholesterol 100 µM, testosterone 100 µM, bi-exponential fit): 59 ± 1 µs | F1 (fraction of first exponential) [3, 18]: 43 ± 2% | τ2 (phosphorescence decay time with ligand) [3, 18]: 221 ± 1 µs | τav (average phosphorescence lifetime with ligand) [3, 18]: 152 ± 6 µs | E (LRET efficiency with ligand), lifetime measurements [3, 19]: 35 ± 3% | R (interprobe distance with ligand), lifetime measurements [3, 20]: 38.3 ± 0.7 Å | ΔR, lifetime measurements [3, 20]: 1.6 ± 0.7 Å | R (interprobe distance with ligand), steady-state measurements [4]: 43.6 ± 0.5 Å | ΔR, steady-state measurements [4]: 1.0 ± 0.5 Å | F1 (fraction of first exponential) [5, 21]: 44 ± 3% | τ2 (phosphorescence decay time with ligand) [5, 21]: 222 ± 8 µs | τav (average phosphorescence lifetime with ligand) [5, 21]: 154 ± 1 µs | R (interprobe distance with ligand), lifetime measurements [5, 22]: 35.8 ± 0.1 Å | ΔR, lifetime measurements [5, 22]: 0.8 ± 0.1 Å | ΔR (change in interprobe distance), steady-state fluorescence ([6]; (C64/C468)-ER/DY): 3.5±0.7 Å | ΔE (change in LRET efficiency), steady-state fluorescence ([6]; (C64/C468)-ER/DY, from maximal relative change in donor intensity): −10±5% | E (LRET efficiency with ligand), steady-state measurements [6, 13]: 19 ± 1% | R (interprobe distance with ligand), steady-state measurements [6, 14]: 42.6 ± 0.7 Å | ΔR, steady-state measurements [6, 14]: 3.5 ± 0.7 Å | Kd [7]: 7.7 ± 0.9 µM | Kd [8]: 6.5 ± 1.1 µM | E (LRET efficiency with ligand), steady-state measurements ([9]; 1-PB 40 µM, ANF 100 µM, BCT 2.5 µM, cholesterol 100 µM, testosterone 100 µM): 14 ± 0% | R (interprobe distance with ligand), steady-state measurements ([9]; same ligand concentrations): 45.2 ± 0.1 Å | ΔR, steady-state measurements ([9]; same ligand concentrations): 0.5 ± 0.1 Å | ΔR (change in interprobe distance), steady-state fluorescence ([10]; (C64/C468)-DY/ER): 5.9±2.0 Å | ΔE (change in LRET efficiency), steady-state fluorescence ([10]; (C64/C468)-DY/ER, from maximal relative change in donor intensity): −11±1% | E (LRET efficiency with ligand), steady-state measurements [10, 19]: 24 ± 1% | R (interprobe distance with ligand), steady-state measurements [10, 20]: 40.8 ± 2.0 Å | ΔR, steady-state measurements [10, 20]: 5.9 ± 2.0 Å
